Test system: CIR-A2 cells
Assay: CTL activity of PSA-OP specific T cell lines against peptide pulsed CIR-A2 cells
Assay type: cell-based, human
Details: effector T/PSA-OP-1; 50 μg/ml peptide for 3 h; 18 h CTL assay; E:T ratio 25:1; No peptide 7.9(2.7)
Description: Peripheral blood mononuclear cells (PBMCs) were obtained from heparinized blood of healthy HLA-A2 donors using a lymphocyte separation medium gradient (Organon Technika, Durham, N.C.). The mononuclear cell fraction was washed 3 times and PBMCs were resuspended in complete medium: AIM V (Life Technologies, Inc.) supplemented with 5% human AB serum (Valley Biomedical, Winchester, Va.), 2 mM glutamine, 100 U/ml of penicillin, and 100 μg/ml of streptomycin (GIBCO). Cells (2×10^5) in complete medium in a volume of 100 μl were put into each well of a 96-well flat-bottom assay plate (Corning, Costar Corp., Cambridge, Mass.). Peptides were added to cultures at a final concentration of […]. Cultures were incubated for 5 days at 37° C. in a humidified atmosphere containing 5% CO2. […]
Various target cells were labeled with 50 μCi of ^111In-oxyquinoline (Medi-Physics Inc., Arlington, Ill.) for 15 minutes at room temperature. […] Determinations were carried out in triplicate and standard deviations were calculated. […] Specific Lysis was calculated using the following formula: % of Specific Release=observed release(cpm)−spontaneous release(cpm) total releae(cpm)−spontaneous release(cpm)×100
Spontaneous release was determined from wells to which 100 μl of complete medium, instead of effector cells was added. Total releasable radioactivity was obtained after treatment of target cells with 2.5% Triton X-100.

FLTPKKLQCV [PSA-1, ID No. 1] was tested, and the “% of Specific release (SD), CIR-A2 cells pulsed with the peptide” value was 8.4(4.0) %.
